The numbers were not newly measured in patent publication US20060009430A1, “Composition for the prevention and treatment of the detrimental effects of dihydrotestosterone” (priority 2004, published 2006), which cites them from elsewhere.

For data set [1], the system named is localized prostate cancer. The conditions noted are these: 15 mg twice per day orally, 3 weeks.
Another data set has as its system prostate. The conditions noted are these: rats, in combination with finasteride.
Another data set relates to cancer. The conditions noted are these: in vivo.
The subject of the next data set is prostate cancer. The conditions noted are these: 200 μg daily for 4.5 years.
The subject of the next data set is advanced prostate cancer. The conditions noted are these: men with most dietary selenium versus lowest intake.

As for `CC(C)=CCC/C(C)=C/C=C/C(C)=C/C=C/C(C)=C/C=C/C=C(C)/C=C/C=C(C)/C=C/C=C(\C)CCC=C(C)C` [lycopene], in data set [1] (biopsy), the metastasis entry is “reduced metastasis”; the regression and malignancy entry was “signs of regression and reduced malignancy”; the tumor size result was “smaller tumors”. For the same compound, the PSA result in data set [1] (versus no intervention) is reported as “significant reduction”.
In the case of `O=c1c(O)c(-c2ccc(O)c(O)c2)oc2cc(O)cc(O)c12` [quercetin], the prostate weight result with prostate is reported as “reduce prostate weight”.
Consider `[Se]` [selenium], for which, in the data set with cancer, the “reduction of cancer mortality and morbidity” value is listed as “approximately 50%”; the “risk of lung, prostate and colon cancer” value is “reduced significantly”. In the data set on prostate cancer, the skin cancer result is reported as “no changes”; the “total, colorectal and lung cancer” value is “significant benefits”. Also, the “reduction in the incidence of prostate cancer (secondary endpoint)” value in the data set on prostate cancer (6.5 years follow-up, 974 men) was 63%. The “number that developed prostate cancer” value with prostate cancer (placebo group 35) was 13. The “fewer cases of advanced prostate cancer” value in the data set with advanced prostate cancer was 65%.
